Test results from US7176322B2, “Calcium receptor modulating agents” (Amgen Inc., priority 2002, dated 2007).

Biological target: T1, human parathyroid cell Ca2+ receptor (hPCaR) (Homo sapiens, UniProt P41180)
T1 construct: expressed in transfected cells
T1 sequence (P41180 20-1078): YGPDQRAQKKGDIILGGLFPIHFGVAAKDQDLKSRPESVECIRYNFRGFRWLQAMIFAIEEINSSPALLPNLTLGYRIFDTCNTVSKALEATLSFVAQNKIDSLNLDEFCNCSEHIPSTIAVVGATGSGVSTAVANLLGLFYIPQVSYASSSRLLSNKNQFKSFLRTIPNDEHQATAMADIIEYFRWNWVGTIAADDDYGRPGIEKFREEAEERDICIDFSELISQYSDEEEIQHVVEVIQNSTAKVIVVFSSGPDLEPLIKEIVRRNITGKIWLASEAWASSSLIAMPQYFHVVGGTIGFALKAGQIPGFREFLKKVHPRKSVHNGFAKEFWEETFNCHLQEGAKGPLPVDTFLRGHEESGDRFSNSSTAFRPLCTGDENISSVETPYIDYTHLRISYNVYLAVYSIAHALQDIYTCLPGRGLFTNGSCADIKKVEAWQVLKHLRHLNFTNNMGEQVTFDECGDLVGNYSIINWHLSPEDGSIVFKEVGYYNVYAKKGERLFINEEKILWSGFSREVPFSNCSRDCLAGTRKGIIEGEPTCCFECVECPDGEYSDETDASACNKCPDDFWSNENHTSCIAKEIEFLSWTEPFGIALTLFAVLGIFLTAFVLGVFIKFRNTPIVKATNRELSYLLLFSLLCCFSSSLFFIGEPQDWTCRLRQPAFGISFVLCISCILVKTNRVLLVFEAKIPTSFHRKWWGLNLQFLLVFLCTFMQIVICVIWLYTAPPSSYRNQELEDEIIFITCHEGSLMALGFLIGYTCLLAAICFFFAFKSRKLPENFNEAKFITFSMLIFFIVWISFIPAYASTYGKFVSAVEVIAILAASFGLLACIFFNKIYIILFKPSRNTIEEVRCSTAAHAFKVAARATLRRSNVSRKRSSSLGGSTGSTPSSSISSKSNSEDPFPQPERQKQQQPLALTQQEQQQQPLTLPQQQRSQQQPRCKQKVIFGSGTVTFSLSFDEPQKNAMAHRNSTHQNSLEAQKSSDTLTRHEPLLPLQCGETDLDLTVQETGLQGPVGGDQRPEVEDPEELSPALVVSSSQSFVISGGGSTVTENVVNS
Test: [Ca2+]i measurement (fluo-3 fluorescence) in HEK 293 4.0-7 cells stably transfected with hPCaR
Assay type: cell-based
Conditions: HEK 293 4.0-7 cells expressing hPCaR; fluo-3, excitation 485 nm / emission 530 nm
Description: The activities of the compounds of the present invention on calcium receptors were measured. In one embodiment, the measurement was performed in accordance with the method described in Example 4 of Nemeth et al., PCT/US95/13704 (International Publication No. WO96/12697) herein incorporated by reference.
A 4.0-kb NotI-HindIII fragment of the human parathyroid cell Ca^2+ receptor (hPCaR) cDNA was subcloned into the mammalian expression vector pCEP4 (Invitrogen) containing the hygromycin-resistant gene as a selectable marker. This plasmid was transfected into HEK 293 cells by calcium phosphate precipitation. Transfected cells were grown in Dulbecco's modified Eagle's medium containing 10% fetal bovine serum and hygromycin (200 μg/mL). Hygromycin-resistant colonies were subcloned and assayed for hPCaR mRNA by solution hybridization using a ^32P-labeled RNA probe complementary to the (4.0 kb) hPCaR sequence (Garrett, et al., J. Biol. Chem. 270, 12919–12925 (1995)). Clone 7 was used to assess the effects of compounds on [Ca^2+]i. This stably transfected cell line is termed HEK 293 4.0–7. For measurements of [Ca^2+]i, the cells were recovered from tissue culture flasks by brief treatment with 0.02% EDTA and then washed and resuspended in PCB containing 1 mM CaCl2 and 0.1% Bovine Serum Albumin (“BSA”). The cells were loaded with fluo-3 by incubation for 30 min at 37° C., with parathyroid cell buffer (126 mM NaCl, 4 mM KCl, 1 mM MgSO4, 0.7 mM K2HPO4/KH2PO4, 20 mM HEPES.NaOH (pH 7.45)) containing 0.5% BSA in 1 mM CaCl2 and 2 μM fluo-3 acetoxymethyl ester. The cells were subsequently washed, each test compound was added to the cells and the fluorescence was recorded by using excitation and emission wavelengths of 485 and 530 nm, respectively.

Row | EC50 [µM] | Structure (SMILES)
1 | ≤ 10 | CCn1c2c(c3cc(CN[C@H](C)c4ccccc4)ccc31)CCC2 [Example 10]
2 | ≤ 10 | CCn1c2c(c3cc(CN[C@H](C)c4ccccc4)ccc31)COCC2 [Example 19]
3 | ≤ 10 | CCn1c2c(c3cc(CN[C@H](C)c4cccc(OC)c4)ccc31)COCC2 [Example 20]
4 | ≤ 10 | CCn1cc(-c2ccccc2)c2cc(CN[C@H](C)c3ccccc3)ccc21 [Example 28, (1R)-N-((1-ethyl-3-phenyl-1H-indol-5-yl)methyl)-1-phenylethanamine]
5 | ≤ 10 | CCn1c2ccc(CN[C@H](C)c3cccc(OC)c3)cc2c2cc(OC)ccc21 [Example 8, (R)-N-(1-(3-Methoxyphenyl)ethyl)-N-(9-ethyl-6-methoxy-3-carbazolylmethyl)amine]
6 | ≤ 10 | CCn1nc2ccc(CN[C@H](C)c3cccc(OC)c3)cc2n1 [Example 5, (R)-N-(1-(3-Methoxyphenyl)ethyl)-N-(2′-ethyl-benzotriazol-5-ylmethyl)amine]
7 | ≤ 10 | CCn1c2c(c3cc(CN[C@H](C)c4ccccc4)ccc31)CN(C)CC2 [Example 13]
8 | ≤ 10 | CCn1c2ccccc2c2cc(CN[C@H](C)c3ccccc3)ccc21 [Example 17, (R)-N-(1-(Phenyl)ethyl)-N-(9-ethyl-3-carbazolylmethyl)amine]
9 | ≤ 10 | C[C@@H](NCc1ccc2c(c1)c1ccccc1n2CCCN(C)C)c1cccc2ccccc12 [Example 24]
10 | ≤ 10 | CCn1nc2ccc(CN[C@H](C)c3cccc4ccccc34)cc2n1 [Example 4, (R)-N-(1-(1-Naphthyl)ethyl)-N-(2′-ethyl-benzotriazol-5-ylmethyl)amine]
11 | ≤ 10 | CCn1cc(-c2ccc(OC(F)(F)F)cc2)c2cc(CN[C@H](C)c3ccccc3)ccc21 [Example 29, (1R)-N-((1-ethyl-3-(4-((trifluoromethyl)oxy)phenyl)-1H-indol-5-yl)methyl)-1-phenylethanamine]
12 | ≤ 10 | CCn1c2c(c3cc(CN[C@H](C)c4cccc5ccccc45)ccc31)COCC2 [Example 21]
13 | ≤ 10 | CCn1ccc2cc(CN[C@H](C)c3cccc4ccccc34)ccc21 [Example 18, (R)-N-(1-(1-Naphthyl)ethyl)-N-((1-ethylindole-5-yl)methyl)amine]
14 | ≤ 10 | CCn1c2c(c3cc(CN[C@H](C)c4cccc(OC)c4)ccc31)CN(C)CC2 [Example 14]
15 | ≤ 10 | CCn1nc2ccc(CN[C@H](C)c3ccccc3)cc2n1 [Example 6, (R)-N-(1-(Phenyl)ethyl)-N-(2′-ethyl-benzotriazol-5-ylmethyl)amine]
16 | ≤ 10 | C[C@@H](NCc1ccc2c(c1)ncn2C)c1cccc2ccccc12 [Example 11, (R)-N-(1-(1-Naphthyl)ethyl)-N-((1-methylbenzimidazol-5-yl)methyl)amine]
17 | ≤ 10 | C[C@@H](NCc1ccc2c(c1)ncn2C)c1ccccc1 [Example 12, (R)-N-(1-(Phenyl)ethyl)-N-((1-methylbenzimidazol-5-yl)methyl)amine]
18 | ≤ 10 | C[C@@H](NCc1ccc2[nH]ccc2c1)c1cccc2ccccc12 [Example 25, (1R)-N-(1H-indol-5-ylmethyl)-1-(1-naphthalenyl)ethanamine]
19 | ≤ 10 | CCn1c2ccccc2c2cc(CN[C@H](C)c3cccc(OC)c3)ccc21 [(R)-N-(1-(3-Methoxyphenyl)ethyl)-N-(9-ethyl-3-carbazolylmethyl)amine]
20 | ≤ 10 | CCn1c2ccccc2c2cc(CN[C@H](C)c3cccc4ccccc34)ccc21 [(R)-N-(1-(1-Naphthyl)ethyl)-N-(9-ethyl-3-carbazolylmethyl)amine]
